The values that follow come from patent EP0247723A2, “Compositions and methods for treating allergic conjuctivitis” (MERCK FROSST CANADA INC., priority 1986, dated 1987).

In the assay the test system is ANTIGEN-INDUCED VASCULAR PERMEABILITY CHANGES IN GUINEA-PIG CONJUNCTIVA
As to the kind of experiment: Inhibition of antigen-induced ocular inflammation (vascular permeability, extravasation of [99mTc]-human serum albumin into the conjunctiva). The format is in vivo. To be noted: ovalbumin-sensitized guinea-pigs. As for the experimental part: Guinea-pigs were actively sensitized to produce IgG1 and IgE antibodies to ovalbumin (2 weeks). Animals were then challenged topically in the eyes (10 µl of 2.5% w/v ovalbumin per eye) followed by intravenous administration of [^99mTc]-human serum albumin (0.25 mCi). Animals were then challenged with antigen either once or twice (2nd challenge 24 hours later). The response was a marked increase in vascular permeability as measured by extravasation of [^99mTc]-labelled human serum albumin into the conjunctiva.
To measure the inhibitory effect of Compounds I-IV, at varying times before antigen challenge, Compounds I-IV were administered either i.v. (1 mg/kg dosage) or topically (0.1% suspensions or_ solutions in 10 µl of 0.5% hydroxy ethylcellulose).

Where [1] appears, read: single challenge, topical 0.1% in 10 µl of 0.5% hydroxy ethylcellulose, pre-treat. time 5 min.
Setting [2] is: second challenge (24 hours later), topical 0.1% in 10 µl of 0.5% hydroxy ethylcellulose, pre-treat. time 5 min.

SMILES strings stand for the structures. Marks after values point to notes of the source that are not given here.

Consider `OCc1ccccc1C=CCc1cc2c(cc1O)CCO2` [IV, 2,3-dihydro-6-(3-(2-hydroxymethyl)phenyl-2-propenyl)-5-benzofuranol], for which the “% Inhib.” value is on record as 59.5* % (second challenge (24 hours later), topical 0.1% in 10 µl of 0.5% hydroxy ethylcellulose, pre-treat. time 60 min) and 28.8** % under setting [1].

Consider `COc1ccc2nc3cc(OC)c(=O)c(Br)c-3sc2c1` [III, 4-bromo-2,7-dimethoay-3H-phenothiazin-3-one], for which the “% Inhib.” value runs as follows: under setting [2], 48.0* %; under setting [1], 38.8*** %.

As for `CCCc1c(OCCCS(=O)(=O)c2ccc(C(=O)CCC(=O)O)cc2)ccc(C(C)=O)c1O` [Compound I, 4-((3-(4-acetyl-3-hydroxy-2-propylphenoxy)-propyl)sulfonyl)-Y-oxobenzene butanoic acid], the “% Inhib.” value runs as follows: (second challenge (24 hours later), i.v. 1 mg/kg, pre-treat. time 2 min) 42.2** %; under setting [2], 37.0** %; (single challenge, i.v. 1 mg/kg, pre-treat. time 2 min) 1.5%; under setting [1], 1.7%.

For the compound `CCCc1c(OCCCSc2ccc([C@H](O)[C@@H](C)CC(=O)O)cc2)ccc(C(C)=O)c1O` (relative stereo) [II, (BS^*,YR^*)-4-(3-(4-acetyl-3-hydroxy-2-propyl-phenoxy)propylthio)-Y-hydroxy-B-methylbenzene-butanoic acid], the “% Inhib.” value under setting [2] is 30.3* % and the “% Inhib.” value under setting [1] is given as 0%.
